One may read the IC50 as the concentration at which inhibition is half-maximal.

Chain of catalytic domain 2 (CD2) of HDAC6 (Q9UBN7 482-800): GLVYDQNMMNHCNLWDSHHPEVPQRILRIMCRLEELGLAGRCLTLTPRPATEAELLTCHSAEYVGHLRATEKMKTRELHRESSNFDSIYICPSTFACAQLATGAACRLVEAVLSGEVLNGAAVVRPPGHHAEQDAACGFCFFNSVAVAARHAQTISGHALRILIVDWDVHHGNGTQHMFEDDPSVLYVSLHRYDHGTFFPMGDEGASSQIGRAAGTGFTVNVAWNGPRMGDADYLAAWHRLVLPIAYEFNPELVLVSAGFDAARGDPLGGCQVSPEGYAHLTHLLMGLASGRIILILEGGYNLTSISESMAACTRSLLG

The test addresses catalytic domain 2 (CD2) of HDAC6 (Homo sapiens (Human), UniProt Q9UBN7). In words: Cellular target engagement assay - NanoBRET. It is filed as cell-based. The note with it: NanoLuc-HDAC6(CD2) in HEK293T cells, 2 hours, read-out: IC50 (HDAC6(CD2) interaction). As for the experimental part:
NanoBRET target engagement was performed against the catalytic domain 2 (CD2) of HDAC6, with minor modifications of kit manufacturer protocol (Promega). Expression of exogenous NanoLuc-HDAC6(CD2) fusion and in HEK293T was achieved following transient transfection with FuGENE HD Transfection Reagent (Promega). The intracellular target engagement assay on HDAC6(CD2) was performed in a 384-well plate format with 8,000 cells per well and a tracer concentration of 0.125 μM or 0.600 μM for HDAC6(CD2). Compounds (dissolved in 100% DMSO) or DMSO (vehicle) were added either manually by diluting them in culture medium at 8× final assay concentration and then adding 5 μL to assay plate or in an automated way by adding […] compound to 5 μL OptiMEM without phenol red (Gibco) using the Echo650 (Labcyte). Tracer solution was added to the cells before seeding 35 μL cell/tracer mixture in the assay plate. The final reaction volume was 40 μL, final DMSO concentration was 1.4% (manual compound addition) or 1.25% (automated compound addition). Assay plates were incubated at 37° C. in a humidified atmosphere containing 5% C02 for 2 hours. The NanoBRET Nano-glo Substrate/Inhibitor was prepared by diluting NanoBRET Nano-Glo Substrate (1:332) and Extracellular Inhibitor (1:1000) in assay medium (Promega). […] BRET ratios were calculated from acceptor/donor signal ratio (mBRET=acceptor/donor*1000) and normalized for each plate. Percentage inhibition was calculated by setting the mBRET obtained with cells without tracer to 100%, while the mBRET obtained with uninhibited cells with tracer was set to 0%. IC50-values were calculated from the percentage inhibition with the log(inhibitor) vs. response—Variable slope (four parameters) nonlinear regression in GraphPad Prism software.
A general note: Bioluminescence resonance energy transfer reports proximity on the nanometre scale.
For the compound `CNCC(=O)NCc1ccc(C(=O)CSc2nc(C)nc3ccc(OC)cc23)s1` [Compound 183, N-((5-(2-((6-methoxy-2-methylquinazolin-4-yl)thio)acetyl)thiophen-2-yl)methyl)-2-(methylamino)acetamide], the IC50 was 100 to 500 nM. As to `COc1ccc2nc(C)nc(SCC(=O)c3ccc(CNC(=O)C4CCCN4)s3)c2c1` (centres unmarked) [Compound 184, N-((5-(2-((6-methoxy-2-methylquinazolin-4-yl)thio)acetyl)thiophen-2-yl)methyl)pyrrolidine-2-carboxamide], the IC50 is 100 to 500 nM. For the compound `COc1ccc2nc(C)nc(SCC(=O)c3ccc(CNC(=O)[C@H](C)O)s3)c2c1` [Compound 185, (S)-2-hydroxy-N-((5-(2-((6-methoxy-2-methylquinazolin-4-yl)thio)acetyl)thiophen-2-yl)methyl)propanamide], the 50% inhibitory concentration (IC50) is at most 100 nM. In the case of `COc1ccc2nc(C)nc(SCC(=O)c3ccc(CNC(=O)[C@@H](C)O)s3)c2c1` [Compound 186, (R)-2-hydroxy-N-((5-(2-((6-methoxy-2-methylquinazolin-4-yl)thio)acetyl)thiophen-2-yl)methyl)propanamide], the half-maximal inhibitory concentration (IC50) is 100 to 500 nM. For the compound `O=C(CO)NCc1ccc(C(=O)CSc2nc3c(C(F)(F)F)cccc3o2)s1` [Compound 196, 2-hydroxy-N-((5-(2-((4-(trifluoromethyl)benzo[d]oxazol-2-yl)thio)acetyl)thiophen-2-yl)methyl)acetamide], the IC50 fell in the range of 1000 to 10000 nM. With `CCc1nc(SCC(=O)c2ccc(CNC(=O)C(C)(C)C)s2)c2ccccc2n1` [Example 13, N-((5-(2-((2-ethylquinazolin-4-yl)thio)acetyl)thiophen-2-yl)methyl)pivalamide], the IC50 fell in the range of 100 to 500 nM. `CC(C)(C)C(=O)NCc1ccc(C(=O)CSc2nc(C3CCC3)nc3ccccc23)s1` [Example 14, N-((5-(2-((2-cyclobutylquinazolin-4-yl)thio)acetyl)thiophen-2-yl)methyl)pivalamide]: the IC50 fell in the range of 100 to 500 nM. Turning to `COc1ccc2nc(C)nc(SCC(=O)c3ccc(CNC(=O)C(C)(C)C)s3)c2c1` [Example 17, N-((5-(2-((6-methoxy-2-methylquinazolin-4-yl)thio)acetyl)thiophen-2-yl)methyl)pivalamide], the IC50 was 100 to 500 nM. For the compound `Cc1nc(SCC(=O)c2ccc(CNC(=O)C(C)(C)C)s2)c2ncccc2n1` [Example 18, N-((5-(2-((2-methylpyrido[3,2-d]pyrimidin-4-yl)thio)acetyl)thiophen-2-yl)methyl)pivalamide], the IC50 was in the range of 100 to 500 nM.

For `Cn1cc2c(SCC(=O)c3ccc(CNC(=O)C(C)(C)C)s3)nc(C(F)(F)F)nc2n1` [Example 22, N-((5-(2-((2-methyl-6-(trifluoromethyl)-2H-pyrazolo[3,4-d]pyrimidin-4-yl)thio)acetyl)thiophen-2-yl)methyl)pivalamide], the IC50 was at most 100 nM. In the case of `Cn1ncc2c(SCC(=O)c3ncc(CNC(=O)C(C)(C)C)s3)ncnc21` [Example 27, N-((2-(2-((1-methyl-1H-pyrazolo[3,4-d]pyrimidin-4-yl)thio)acetyl)thiazol-5-yl)methyl)pivalamide], the IC50 fell in the range of 100 to 500 nM.

In the case of `COc1ccc2nc(C)nc(SCC(=O)c3ccc(CNC(=O)C4CC4(F)F)s3)c2c1` (centres unmarked) [Example 39, 2,2-difluoro-N-((5-(2-((6-methoxy-2-methylquinazolin-4-yl)thio)acetyl)thiophen-2-yl)methyl)cyclopropane-1-carboxamide], the IC50 lay within 500 to 1000 nM. To `COc1ccc2nc(C)nc(SCC(=O)c3ccc(CNC(=O)C(F)(F)C(F)(F)F)s3)c2c1` [Example 40, 2,2,3,3,3-pentafluoro-N-((5-(2-((6-methoxy-2-methylquinazolin-4-yl)thio)acetyl)thiophen-2-yl)methyl)propanamide] belongs 1000 to 10000 nM; to `Cn1cc2c(SCC(=O)c3ccc(CNC(=O)C4CC4)s3)nc(C(F)(F)F)nc2n1` [Example 41, N-((5-(2-((2-methyl-6-(trifluoromethyl)-2H-pyrazolo[3,4-d]pyrimidin-4-yl)thio)acetyl)thiophen-2-yl)methyl)cyclopropanecarboxamide], at most 100 nM.

Regarding `COc1ccc2nc(C)nc(SCC(=O)c3ccc(CNC(=O)C4CC4)s3)c2c1` [Example 51, N-((5-(2-((6-methoxy-2-methylquinazolin-4-yl)thio)acetyl)thiophen-2-yl)methyl)cyclopropanecarboxamide], the IC50 lay in the range of 100 to 500 nM. As to `O=C(CO)NCc1ccc(C(=O)CSc2nc(C(F)(F)F)nc3ccc(N4CCOCC4)cc23)s1` [Example 63], the IC50 was in the range of 100 to 500 nM. `CC(=O)NCCc1ccc(C(=O)CSc2nc(C3CC3)nc3ccccc23)s1` [Example 101, N-(2-(5-(2-((2-cyclopropylquinazolin-4-yl)thio)acetyl)thiophen-2-yl)ethyl)acetamide]: the IC50 lay within 100 to 500 nM. Regarding `CC(=O)NCc1ccc(C(=O)CSc2ncnc3c2cnn3C)s1` [Example 103, N-((5-(2-((1-methyl-1H-pyrazolo[3,4-d]pyrimidin-4-yl)thio)acetyl)thiophen-2-yl)methyl)acetamide], the half-inhibitory concentration (IC50) lay within 500 to 1000 nM.

Consider `COc1ccc2nc(C)nc(SCC(=O)c3ccc(CCN4CCC(O)C4=O)s3)c2c1` (centres unmarked) [Example 115, 3-hydroxy-1-(2-(5-(2-((6-methoxy-2-methylquinazolin-4-yl)thio)acetyl)thiophen-2-yl)ethyl)pyrrolidin-2-one], for which the half-maximal inhibitory concentration (IC50) was in the range of 500 to 1000 nM. To `COc1ccc2nc(C)nc(SCC(=O)c3ccc([C@H](C)NC(=O)CO)s3)c2c1` [Example 128, (S)-2-hydroxy-N-(1-(5-(2-((6-methoxy-2-methylquinazolin-4-yl)thio)acetyl)thiophen-2-yl)ethyl)acetamide] belongs 100 to 500 nM; to `C[C@H](NC(=O)CO)c1ccc(C(=O)CSc2nc(C(F)(F)F)nc3c2cnn3C)s1` [Example 130, (S)-2-hydroxy-N-(1-(5-(2-((1-methyl-6-(trifluoromethyl)-1H-pyrazolo[3,4-d]pyrimidin-4-yl)thio)acetyl)thiophen-2-yl)ethyl)acetamide], 100 to 500 nM; to `COc1ccc2nc(C)nc(SCC(=O)c3ccc(CN4CCOCC4=O)s3)c2c1` [Example 137, 4-((5-(2-((6-methoxy-2-methylquinazolin-4-yl)thio)acetyl)thiophen-2-yl)methyl)morpholin-3-one], 100 to 500 nM. For `COc1ccc2nc(C)nc(SCC(=O)c3ccc(CN4CCC(O)C4=O)s3)c2c1` (centres unmarked) [Example 141, 3-hydroxy-1-((5-(2-((6-methoxy-2-methylquinazolin-4-yl)thio)acetyl)thiophen-2-yl)methyl)pyrrolidin-2-one], the half-inhibitory concentration (IC50) lay in the range of 100 to 500 nM.

In the case of `O=C(CSc1nc(C(F)(F)F)nc2ncccc12)c1ccc(CN2CCCC2=O)s1` [Example 157, 1-((5-(2-((2-(trifluoromethyl)pyrido[2,3-d]pyrimidin-4-yl)thio)acetyl)thiophen-2-yl)methyl)pyrrolidin-2-one], the IC50 was at most 100 nM. Then `COc1cnc2nc(C)nc(SCC(=O)c3ccc(CN4CCOCC4=O)s3)c2c1` [Example 161, 4-((5-(2-((6-methoxy-2-methylpyrido[2,3-d]pyrimidin-4-yl)thio)acetyl)thiophen-2-yl)methyl)morpholin-3-one], with 100 to 500 nM; and `O=C(CO)NCc1ccc(C(=O)CSc2nccc3cccnc23)s1` [Example 165, N-((5-(2-((1,7-naphthyridin-8-yl)thio)acetyl)thiophen-2-yl)methyl)-2-hydroxyacetamide], with 100 to 500 nM.

Values taken from patent publication US20250051319A1 (AUGUSTINE THERAPEUTICS, priority 2021, published 2025).
